Reference: patent US8603989B2, “Method for treating and preventing kidney stones employing an SGLT2 inhibitor and composition containing same” (Bristol-Myers Squibb Company, priority 2008, dated 2013)

Tests used:
type 2 diabetic patients = tested on: type 2 diabetic patients
Description: C-aryl glucoside SGLT2 inhibitors are known to reduce blood glucose levels in diabetic patients, see U.S. Pat. No. 6,774,112, which is incorporated herein by reference in its entirety, but not known to increase urine volume. […] Metformin reduces plasma glucose concentration by non-renal mechanisms and is not known to induce glucosuria. […] On day 1 and day 14, the patients were examined for the levels of glucosuria and changes in urine volumes.

diabetic patients = experiment: 12-week treatment of diabetic patients: urine glucose, HbA1c, urine volume (Table 5); type: in vivo, human
healthy subjects = details: healthy subjects, 5, 20, 50 or 100 mg, within 24 hours, indirect comparison
patients with diabetes = details: patients with diabetes, 5, 25 or 100 mg
Description: The levels of urine glucose of all subjects are shown in the plot and the mean urine glucose is in the darker lines.

[1] = tested on: human SGLT2 (hSGLT2) relative to human SGLT1 (hSGLT1); details: ratio of EC50 in favor of SGLT2
Description: Selectivity for SGLT2 of a given inhibitor can be determined by comparing the EC50 values measured in the SGLT1 and SGLT2 assay. […] Cells expressing hSGLT1 or hSGLT2 were maintained using standard cell culture techniques. Assays for sodium-dependent glucose transport in 96-well plates were initiated by adding 100 μl/well of protein-free assay buffer containing sodium (Hepes/Tris pH 7.4, 137 mM NaCl, 5.4 mM KCl, 2.8 mM CaCl2, 1.2 mM MgSO4), 10 μM ^14C-AMG and inhibitor or dimethyl sulfoxide (DMSO) vehicle, and plates were incubated for 2 h at 37° C. Sodium-dependent ^14C-AMG uptake was calculated by subtracting the counts per minute (CPM) observed under sodium-free uptake conditions from the counts observed under sodium-containing conditions. Inhibitors were assayed at various concentrations in triplicate in the presence of sodium, and the percent inhibition was calculated by comparing CPM in inhibitor-containing wells with CPM in wells containing only DMSO vehicle. Phlorizin, a known SGLT inhibitor, was evaluated in parallel in every assay. A dose-response curve was fitted to an empirical four-parameter model using XL Fit (IDBS, Guilford, UK) to determine the inhibitor concentration at half-maximal response (EC50). SGLT2 selectivity is represented as a ratio of EC50 in favor of SGLT2.

[2] = 2.5-50 mg, after 12 weeks of treatment

`CCOc1ccc(Cc2cc([C@@H]3O[C@H](CO)[C@@H](O)[C@H](O)[C@H]3O)ccc2Cl)cc1` [dapagliflozin PGS, dapagliflozin (S)-propylene glycol solvate] was tested, and the “fasting serum glucose (FSG) levels” value (type 2 diabetic patients; two-week period) was “Dose-dependent reduction”, the “postprandial glucose levels in oral glucose tolerance tests (OGTT)” value (type 2 diabetic patients; two-week period) was “reduced” and the urine volumes (type 2 diabetic patients; two-week period) was “no increase”. The “urinary glucose levels within a 24-hour time period” value (type 2 diabetic patients; versus placebo, FIG. 3) was “increased”, the OGT (diabetic patients; [2]) was “improved” and the “reduced HbAlC levels” value (diabetic patients; [2]) was 0.71-0.9%. For the same compound, the “glucosuric effect, loss of calories in the urine as compared to GSK 869,682” value (healthy subjects) was “significant loss of calories in the urine” and the “urine glucose excretion compared to placebo” value (patients with diabetes) was “higher”.
In the case of `CCOc1ccc(Cc2cc([C@@H]3O[C@H](CO)[C@@H](O)[C@H](O)[C@H]3O)ccc2Cl)cc1` [dapagliflozin], the “selectivity for SGLT2 relative to SGLT1” value [1] is reported as “High selectivity for SGLT2”.
With `CN(C)C(=N)N=C(N)N` [Metformin, reference compound] the “HbA1c reduction from baseline” value (diabetic patients; 1500 mg metformin, 12 weeks) was 0.73%.
